The record followed here is patent US11852632B2, “Cancer test device, cancer test method, and staining agent for use in cancer test” (MIE UNIVERSITY, priority 2016, dated 2023).

One series concerns cancer tissue. It is filed as in vivo, laboratory mouse. Conditions: mouse; for depth to which the tissue is stained: in vivo. As to the method:
(§1) A laboratory mouse was used as the living body. […] The staining period was set at 5 minutes.

The next series relates to healthy mucosa tissue. Further details: species or system laboratory mouse. Conditions: mouse, in vivo. Here is the method:
as §1

For series [1], the target named is T1, cancer-related gene product STAT3 (Mus musculus, UniProt P42227).
T1 construct: used to stain the expressed STAT3-family cancer-related gene product in the living cell; from tissue; host or cells: inner wall of the large intestine of a living laboratory mouse (cancerous and healthy sites)
T1 sequence (P42227 whole entry): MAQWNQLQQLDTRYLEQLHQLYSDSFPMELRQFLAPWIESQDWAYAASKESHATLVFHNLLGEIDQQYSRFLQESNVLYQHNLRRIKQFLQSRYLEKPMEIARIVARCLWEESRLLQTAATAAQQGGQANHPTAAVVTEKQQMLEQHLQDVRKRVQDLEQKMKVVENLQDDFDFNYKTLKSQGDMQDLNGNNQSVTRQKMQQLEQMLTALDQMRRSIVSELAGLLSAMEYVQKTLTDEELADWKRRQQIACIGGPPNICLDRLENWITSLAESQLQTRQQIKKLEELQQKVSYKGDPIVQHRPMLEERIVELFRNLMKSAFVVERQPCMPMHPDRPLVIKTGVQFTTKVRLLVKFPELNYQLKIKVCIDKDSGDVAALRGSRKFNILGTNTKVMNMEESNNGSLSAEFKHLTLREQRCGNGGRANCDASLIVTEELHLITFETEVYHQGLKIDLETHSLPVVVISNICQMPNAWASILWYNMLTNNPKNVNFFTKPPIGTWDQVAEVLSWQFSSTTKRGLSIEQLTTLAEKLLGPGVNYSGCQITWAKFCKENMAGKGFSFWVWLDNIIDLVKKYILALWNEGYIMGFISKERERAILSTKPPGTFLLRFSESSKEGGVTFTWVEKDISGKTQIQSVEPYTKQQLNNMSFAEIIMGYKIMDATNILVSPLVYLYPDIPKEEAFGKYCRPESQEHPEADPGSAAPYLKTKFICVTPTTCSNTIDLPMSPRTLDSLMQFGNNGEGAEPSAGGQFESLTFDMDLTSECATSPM
Description: Curcumin living body staining compared with anti-STAT3 antibody immunostaining of the same site, confocal laser microscope. It is filed as in vivo, laboratory mouse. Conditions: 1%-curcumin then 1%-Acid Red, FIG. 4A (b) versus (e). The text has this: The sections (a), (b), and (c) of FIG. 4A are images of a sample that is a double-stained living cell group of the inner wall of the intestine of a living laboratory mouse produced by staining the inner wall of the intestine with a 1%-curcumin solution and then staining the curcumin-stained inner wall with 1%-Acid Red (C27H29N2NaO7S2). A confocal laser microscope was used as the image device.
It is therefore determined that the site containing the cell group heavily stained with the curcumin stain is ultra-early cancer. The three panels (d), (e), and (f) in the lower row of FIG. 4A show images of the same site of the large intestine of the digestive tract of the laboratory mouse imaged in the same living body staining as that in the upper row, fixed with formalin, and then imaged in the fluorescence antibody technique. […] The section (f) is a (d)+(e) superimposed image.
The sections (d), (e), and (f) of FIG. 4A are produced by fixing the intestine of the laboratory mouse described above with formalin, then immunostaining the intestine with an anti-STAT3 antibody that bonds to the STAT3-family cancer-related gene product, and imaging the same location as those surrounded by the white frames in the sections (a), (b), and (c). In the sections (d) to (f), the samples were fixed with formalin and therefore slightly shrunk.

Read-outs that look alike come from different tables or passages of the source.

`CCN(CC)c1ccc2c(-c3ccc(S(=O)(=O)[O-])cc3S(=O)(=O)[O-])c3ccc(=[N+](CC)CC)cc-3oc2c1.[Na+]` [Acid Red]: in the series with cancer tissue, the “permeability in the cancer tissue compared with the healthy mucosa tissue” value is recorded as “lower permeability”. Moreover, the “depth to which the tissue is stained” value is “about 40 μm” in the series on cancer tissue and “about 70 μm” in the series with healthy mucosa tissue.
`COc1cc(/C=C/C(=O)CC(=O)/C=C/c2ccc(O)c(OC)c2)ccc1O` [curcumin]: the “permeability in the cancer tissue compared with the healthy mucosa tissue” value in the series with cancer tissue was “higher permeability”. Also, the “depth to which the tissue is stained” value in the series with cancer tissue (5 min) is listed as “about 40 μm”; in the series on healthy mucosa tissue (5 min), “about 20 μm”. For the same molecule, in series [1], the “distribution of heavily stained cell group versus cell group with STAT3 highly expressed (anti-STAT3 antibody)” value is “coincides with the distribution of the cell group shown in the section (e) in the lower row and having the cancer-related gene product STAT3 highly expressed”.
